Test results reported in patent US5496810A, “Pyrimidine deoxyribonucleoside potentiation of combination therapy based on 5-fluorouracil and interferon” (Montefiore Medical Center, priority 1994, dated 1996).

System: HT-29 human carcinoma cells
Experiment: cells
Details: for Cloning Efficiency (% of control): 72 hours
Method: HT-29 human carcinoma cells (ATCC No. HTB-38) were maintained in RPMI 1640 with 10%v/v fetal bovine serum (GIBCO) in a humidified, 5% CO2 atmosphere at 37° C. Cells were plated in 24 well plates (150 cells per well) in RPMI 1640 medium with 10% v/v dialyzed fetal bovine serum. […] The various agents were diluted in phosphate-buffered saline (PBS), and control wells received vehicle alone. After 72 hours, drug containing medium was removed and replaced with RPMI 1640 with 10%v/v fetal bovine serum. Cell colonies were allowed to grow for an additional 7-10 days, at which point they were stained and counted. […] Data are means of at least 3 determinations.

[1] = 5-FU 0, IFN 500 u/ml, 5-ETH or 5-PRO 150 μM
[2] = 5-FU 0.05 μM, IFN 500 u/ml, 5-ETH or 5-PRO 150 μM
[3] = 5-FU 0.10 μM, IFN 500 u/ml, 5-ETH or 5-PRO 150 μM
[4] = 5-FU 0.25 μM, alone (CONT) or with IFN 500 u/ml, 5-ETH or 5-PRO 150 μM
[5] = 5-FU 0.50 μM, alone (CONT) or with IFN 500 u/ml, 5-ETH or 5-PRO 150 μM
[6] = 5-FU 1.0 μM, alone (CONT) or with IFN 500 u/ml, 5-ETH or 5-PRO 150 μM
[7] = 5-FU 1.5 μM, alone (CONT) or with IFN 500 u/ml, 5-ETH or 5-PRO 150 μM

| SMILES | IC50 (Homo sapiens, HT-29, 72 h, read-out: 5-FU IC50, with 5-propynyloxy-2'-deoxyuridine (150 μM), 3 days of drug treatment) [nM] | inhibition at 2 µM (Homo sapiens, HT-29, 72 h, read-out: reduction in colonies) [%] | increased the cytotoxicity of 5-fluorouracil [times] | Cloning Efficiency (% of control) [1] [%] | Cloning Efficiency (% of control) [2] [%] | Cloning Efficiency (% of control) [3] [%] | Cloning Efficiency (% of control) [4] [%] | Cloning Efficiency (% of control) [5] [%] | Cloning Efficiency (% of control) [6] [%] | Cloning Efficiency (% of control) [7] [%] | Cloning Efficiency (% of control) (5-FU 2.0 μM, alone (CONT) or with IFN 500 u/ml, 5-PRO 150 μM) [%] | Cloning Efficiency (% of control) (5-FU 3.0 μM, alone (CONT) or with IFN 500 u/ml, 5-PRO 150 μM) [%] |
| --- | --- | --- | --- | --- | --- | --- | --- | --- | --- | --- | --- | --- |
| O=c1[nH]cc(F)c(=O)[nH]1 [5-FU, 5-fluorouracil] | 260 | 50 | – | – | – | – | – | – | – | – | – | – |
| CCOc1cn([C@H]2C[C@H](O)[C@@H](CO)O2)c(=O)[nH]c1=O [5-ethoxy-2'-deoxyuridine] | – | – | 5.7 | 89 | 81 | 80 | 60 | 38 | 13 | 4 | – | – |
| C#CCOc1cn([C@H]2C[C@H](O)[C@@H](CO)O2)c(=O)[nH]c1=O [5-propynyloxy-2'-deoxyuridine, 5-(2-propynyloxy)-2'-deoxyuridine] | – | – | 7.7 | 105 | 100 | 81 | 51 | 26 | 9 | 4 | 2 | 0 |
